Assay results: US20080076750A1, “Azetidinone Derivatives and Methods of Use Thereof” (priority 2006, published 2008)
Read-outs that look alike come from different tables or passages of the source.

Columns and labels:
NPC1L1 = NPC1L1 (Rattus norvegicus, UniProt Q6T3U3); test: NPC1L1 Binding Assay, rat; settings: competition with BODIPY-labeled glucuronidated ezetimibe
human NPC1L1 = biological target: T1, human NPC1L1 (Homo sapiens, UniProt Q9UHC9); test: NPC1L1 Binding Assay, human; settings: HEK-293 cells expressing human NPC1L1; competition with 250 nM BODIPY-labeled glucuronidated ezetimibe, 4 h at 37° C.
T1 construct: expressed in transfected cells; host or cells: HEK-293 (geneticin selection)
T1 sequence (Q9UHC9 22-1359): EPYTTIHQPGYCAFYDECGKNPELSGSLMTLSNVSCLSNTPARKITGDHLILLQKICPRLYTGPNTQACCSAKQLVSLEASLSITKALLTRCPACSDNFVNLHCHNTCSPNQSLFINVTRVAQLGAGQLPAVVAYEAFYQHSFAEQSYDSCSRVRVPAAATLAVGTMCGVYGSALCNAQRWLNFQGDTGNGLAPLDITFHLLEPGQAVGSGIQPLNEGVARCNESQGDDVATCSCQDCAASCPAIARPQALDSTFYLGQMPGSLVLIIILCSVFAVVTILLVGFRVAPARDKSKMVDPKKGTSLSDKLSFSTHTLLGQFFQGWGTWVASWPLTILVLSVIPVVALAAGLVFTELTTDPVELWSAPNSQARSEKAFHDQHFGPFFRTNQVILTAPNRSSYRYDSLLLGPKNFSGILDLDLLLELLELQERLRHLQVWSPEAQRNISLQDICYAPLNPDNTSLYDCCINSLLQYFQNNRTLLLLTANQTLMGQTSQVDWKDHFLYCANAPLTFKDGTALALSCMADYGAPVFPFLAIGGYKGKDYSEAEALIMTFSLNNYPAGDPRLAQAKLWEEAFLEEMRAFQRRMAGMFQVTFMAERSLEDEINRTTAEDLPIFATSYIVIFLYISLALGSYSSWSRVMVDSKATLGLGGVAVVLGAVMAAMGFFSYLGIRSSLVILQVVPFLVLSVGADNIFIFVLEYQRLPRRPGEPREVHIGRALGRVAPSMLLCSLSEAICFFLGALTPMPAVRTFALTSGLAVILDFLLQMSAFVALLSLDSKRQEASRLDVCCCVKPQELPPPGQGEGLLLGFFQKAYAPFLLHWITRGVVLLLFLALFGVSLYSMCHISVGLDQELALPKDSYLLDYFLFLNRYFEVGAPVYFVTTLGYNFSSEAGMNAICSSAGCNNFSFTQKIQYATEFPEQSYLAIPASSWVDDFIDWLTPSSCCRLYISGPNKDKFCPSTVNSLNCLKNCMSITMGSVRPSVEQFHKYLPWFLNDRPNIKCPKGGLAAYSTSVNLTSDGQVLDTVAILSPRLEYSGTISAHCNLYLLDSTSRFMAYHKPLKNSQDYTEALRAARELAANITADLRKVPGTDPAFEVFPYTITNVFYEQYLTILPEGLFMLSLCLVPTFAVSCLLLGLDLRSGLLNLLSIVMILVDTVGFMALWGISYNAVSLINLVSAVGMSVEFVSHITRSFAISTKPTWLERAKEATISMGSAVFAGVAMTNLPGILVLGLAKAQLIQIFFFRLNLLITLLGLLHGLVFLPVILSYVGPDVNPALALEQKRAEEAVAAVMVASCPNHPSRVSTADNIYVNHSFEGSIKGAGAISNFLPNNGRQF
Procedure: HEK-293 cells expressing human NPC1L1 were plated into 384-well black/clear plates (BD Biosciences, Bedford Mass.) for binding experiments the following day. Cell growth media (DMEM, 10% fetal calf serum, 1 mg/mL geneticin, 100 Units/mL penicillin) was aspirated. Cell growth media ([…]) containing 250 nM BODIPY-labeled glucuronidated ezetimibe was added to each well. Cell growth media ([…] containing the indicated concentration of compound was then added to the wells unlabeled glucuronidated ezetimibe […]) was used to determine nonspecific binding. The binding reaction was allowed to proceed for 4 h at 37° C. Subsequently the cell growth media was aspired and the cells washed once with PBS. The remaining fluorescent labeled glucuronidated ezetimibe bound to the cells was quantified using a FlexStation plate reader (Molecular Devices, Sunnyvale Calif.) to measure fluorescence intensity. Ki values were determined from competition binding curves (n=4 for each point) using Prism and Activity Base software.

TRPV1 [1] = biological target: T2, TRPV1 (Homo sapiens, UniProt Q8NER1); test: TRPV1 Screening Assay (FLIPR); format: cell-based; settings: HEK293-TetOFF-TRPV1, capsaicin (50 nM final), read-out: VR1 flipr CAPSAICIN IC50
T2 construct: expressed in transfected cells; host or cells: HEK293-Tet-OFF
T2 sequence (Q8NER1 whole entry, species assumed): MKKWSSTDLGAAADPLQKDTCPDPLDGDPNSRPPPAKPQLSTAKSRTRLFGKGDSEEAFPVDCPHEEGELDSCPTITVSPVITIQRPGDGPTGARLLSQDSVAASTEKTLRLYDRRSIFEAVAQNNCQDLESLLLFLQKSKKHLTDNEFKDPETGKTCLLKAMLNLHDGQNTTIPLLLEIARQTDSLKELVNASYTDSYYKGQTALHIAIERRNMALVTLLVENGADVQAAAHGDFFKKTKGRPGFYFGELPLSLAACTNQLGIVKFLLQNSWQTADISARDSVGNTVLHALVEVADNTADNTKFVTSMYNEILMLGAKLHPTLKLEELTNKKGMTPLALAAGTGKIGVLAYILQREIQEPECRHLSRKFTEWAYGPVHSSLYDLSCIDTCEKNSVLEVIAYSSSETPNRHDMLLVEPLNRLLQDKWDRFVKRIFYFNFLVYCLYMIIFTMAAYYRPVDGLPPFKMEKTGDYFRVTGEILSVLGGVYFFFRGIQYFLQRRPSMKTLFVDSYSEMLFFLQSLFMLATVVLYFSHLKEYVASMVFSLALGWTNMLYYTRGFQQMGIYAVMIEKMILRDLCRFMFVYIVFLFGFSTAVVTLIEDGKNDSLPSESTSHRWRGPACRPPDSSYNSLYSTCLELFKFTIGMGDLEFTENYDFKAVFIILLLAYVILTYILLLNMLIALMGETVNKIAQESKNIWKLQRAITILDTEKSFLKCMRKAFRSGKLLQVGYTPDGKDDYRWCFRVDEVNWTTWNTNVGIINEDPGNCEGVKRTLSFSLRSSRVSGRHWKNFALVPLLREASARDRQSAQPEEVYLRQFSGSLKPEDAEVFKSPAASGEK
Text: • 1) Cell line: HEK293-Tet^OFF-TRPV1 • 2) Media: MEM (Invitrogen) • 3) 10% Tet-FBS (Clontech #8630-1) • 4) Fungizone (Gibco #15290-018 (100×)) • 5) Penn/Strep (Gibco #15140-122 (100×)) • 6) Geneticin (Gibco #10131-027 (100×)) • 7) Hygromycin (Clontech #8057-1) • 8) Doxycycline (Clontech #8634-1) • 9) Trypsin/EDTA (Gibco #25200-056) • 10) 100 mm cell culture plates (Falcon #3003) • 11) 96-well poly-D-lysine plates (Fisher #08-774-256) • 12) Hank's Balanced Salt Solution (HBSS) (GIBCO #14025-092) • 13) HEPES Buffer (GIBCO #15630-080) • 14) 30% BSA (Research Organics #1334A) • 15) Probenecid (Sigma P-8761) • 16) Fluo-4, AM (50 μg) (Molecular robes F-23917) • 17) Pluronic F-127 20% (Molecular Probes P-3000). • 18) capsazepine (Sigma C-191) • 19) capsaicin (Sigma M-2028) • 20) compound plates (NUNC #442587) • 21) black pipet tips 96-well FLIPR (Robbins Scientific 1043-24-0) • 22) Additional reagents available from Fisher: methanol, DMSO, NaOH Reagent Preparation: 1) Cells: HEK293-Tet^OFF-TRPV11
• and Doxycycline 2.5 μg/mL final (from a 1000× stock in PBS) • Cells must be fed and/or split every 2-3 days (to maintain transcriptional repression with Doxycycline). • Must be split no more than 1:5 (50-75% confluency) to maintain growth and viability. • Grown on regular tissue culture plates (e.g. Falcon 3003-100 mm) • SpliT-cells via Trypsin/EDTA: incubate with trypsin at room temperature no longer than 5 min (HEK293 cells have a tendency to ball up if over trypsinized). • Two days prior to assay, the cells are split into 96-well plates in cell media in the absence of doxycycline at a concentration of 40,000 cells/well in a volume of 200 μL, 2) FLIPR buffer is prepared fresh:
Add 5 mL of Probenecid Solution, prepared as follows: 710 mg of probenecid (Sigma P-8761) is solubilized in 5 mL of 1 N NaOH, 5 mL of above buffer s added for final volume of 10 mL (of which 5 mL goes back into FLIPR buffer)
Combine 42 μL of dye mixture with 11 mL of FLIPR buffer/96-well plate.
Stock solution of 0.1 M capsaicin is prepared in MeOH (50 mg+1.6 mL MeOH). Store 50 μL aliquots at −80° C.
For assay: • a) Dilute stock by adding 0.8 μL into 1 mL of MeOH (final=80 μM). • b) Add 50 μL of diluted stock to 20 mL of FLIPR buffer (final=0.2 μM) • c) Agonist solution is added 150 μL/well to 96-well plate. • d) Final agonist concentration on cells will be 50 nM. […] Laser is adjusted upwards for an average signal≧10,000/well and less than 10% variability. 7) Compound addition conditions are as follows: • FLIPR setup (dual sequence parameters): • Sequence 1: • First interval 1 sec/60 counts • Second interval 6 sec/50 counts • Fluid addition=50 μL • Pipettor=110 μL • Dispense Speed=30 μL/sec • Sequence 2: • Second interval 1 sec/60 counts • Second interval 6 sec/40 counts • Fluid addition=50 μL • Pipettor height=140 μL • Dispense Speed=50 μL/sec Data Analysis:
1) Data from both additions is reported as Max-Min for each well

TRPV1 [2] = biological target: T2, TRPV1; test: TRPV1 Screening Assay (FLIPR); format: cell-based; settings: HEK293-TetOFF-TRPV1, PMA, read-out: VR1 flipr PMA IC50

Cc1cccc(Cl)c1NC(=O)N1CCC2(CC1)C(=O)N(c1ccccc1)C2c1ccccc1 (stereo not shown) [drawing 443]
Ki (NPC1L1): 1.06 µM | Ki (human NPC1L1): 1.01 µM

O=C(Nc1cccc2ccccc12)N1CCC2(CC1)C(=O)N(c1ccccc1)C2c1ccccn1 (stereo not shown)
IC50 (TRPV1 [1]): 0.201 µM | IC50 (TRPV1 [2]): 0.233 µM

O=C(Nc1ccc(C(F)(F)F)cc1)N1CCC2(CC1)C(=O)N(c1cncnc1)C2c1ccccc1 (stereo not shown)
IC50 (TRPV1 [1]): 0.184 µM | IC50 (TRPV1 [2]): 0.21 µM

Cc1ccc(C)c(NC(=O)N2CCC3(CC2)C(=O)N(c2ccccc2)C3c2ccccc2)c1 (stereo not shown)
Ki (NPC1L1): 3.5 µM | Ki (human NPC1L1): 3.9 µM

O=C(Nc1c(F)cccc1F)N1CCC2(CC1)C(=O)N(c1ccccc1)C2c1ccccc1 (stereo not shown)
Ki (NPC1L1): 6.63 µM | Ki (human NPC1L1): 9.87 µM

CC(C)c1ccc(NC(=O)N2CCC3(CC2)C(=O)N(c2ccccc2)C3c2ccccn2)cc1 (stereo not shown)
IC50 (TRPV1 [1]): 0.07 µM | IC50 (TRPV1 [2]): 0.081 µM

Cc1c(Cl)cccc1NC(=O)N1CCC2(CC1)C(=O)N(c1ccccc1)C2c1ccccc1 (stereo not shown) [drawing 435]
Ki (NPC1L1): 3.62 µM | Ki (human NPC1L1): 3.77 µM

CC(C)c1ccc(NC(=O)N2CCC3(CC2)C(=O)N(c2cncnc2)C3c2ccccn2)cc1 (stereo not shown)
IC50 (TRPV1 [1]): 0.301 µM | IC50 (TRPV1 [2]): 0.252 µM

O=C(Nc1ccc(Oc2ccccc2)cc1)N1CCC2(CC1)C(=O)N(c1ccccc1)C2c1ccccn1 (stereo not shown)
IC50 (TRPV1 [1]): 0.259 µM | IC50 (TRPV1 [2]): 0.14 µM

O=C(Nc1cccc(Cl)c1Cl)N1CCC2(CC1)C(=O)N(c1ccccc1)C2c1ccccc1 (stereo not shown)
Ki (NPC1L1): 4.95 µM | Ki (human NPC1L1): 6.62 µM

Cc1cccc(Cl)c1NC(=O)N1CCC2(CC1)C(=O)N(c1ccccc1)C2c1ccccc1 (stereo not shown) [drawing 434]
Ki (NPC1L1): 1.17 µM | Ki (human NPC1L1): 2.32 µM
